Patent US6761911B2 (The United States of America as represented by the …, priority 1999, dated 2004)

Experiments:
[1] = test system: E. coli; assay: Intraruminal sodium chlorate in cattle: ruminal and fecal E. coli viable cell counts on MacConkey agar; format: in vivo; conditions: for Mean ± SD (n = 2) fecal EC concentration / Mean ± SD (n = 2) ruminal EC concentration: treated (30 mM sodium chlorate intraruminally)
Description: Concentrations of E. coli in the ruminal contents and in feces collected from the test animals were determined by viable cell counts on MacConkey agar plates.

[2] = test system: culturable anaerobes; assay: Most probable number of culturable anaerobes in ruminal fluid incubated with chlorate; format: cell-based; conditions: 5 mM sodium chlorate, anaerobic, 39° C.

**Q.** `[O-][Cl+2]([O-])O` [chlorate, sodium chlorate] was tested. Which “decrease in ruminal E. coli concentration” value ([1]; fasted and non-fasted, 30 mM sodium chlorate, after 24 hours (compared with 10 hours)) did it give?
**A.** The value was “significantly greater”.

**Q.** What about the “change of ruminal E. coli concentrations from prechlorate levels” value ([1]; fasted and non-fasted, 30 mM sodium chlorate, by 10 hours after chlorate administration) of the same molecule?
**A.** Its value is “decreased only slightly”.

**Q.** What about the “Mean ± SD (n = 2) fecal EC concentration” value ([1]; fasted, 0 h post treatment) of the same molecule?
**A.** Its value is 5.29 ± 0.24 log base 10 CFU/g.

**Q.** And the “Mean ± SD (n = 2) ruminal EC concentration” value ([1]; fasted, 0 h post treatment)?
**A.** The value was 3.62 ± 2.29 log base 10 CFU/g.

**Q.** What about the “Mean ± SD (n = 2) ruminal EC concentration” value ([1]; fasted, 10 h post treatment) of the same molecule?
**A.** Its value is 3.27 ± 3.21 log base 10 CFU/g.

**Q.** And the “Mean ± SD (n = 2) fecal EC concentration” value ([1]; fasted, 24 h post treatment)?
**A.** The value was 2.33 ± 1.24 log base 10 CFU/g.

**Q.** What about the “Mean ± SD (n = 2) ruminal EC concentration” value ([1]; fasted, 24 h post treatment) of the same molecule?
**A.** Its value is 2.40 ± 0.20 log base 10 CFU/g.

**Q.** What about the “Mean ± SD (n = 2) fecal EC concentration” value ([1]; nonfasted, 0 h post treatment) of the same molecule?
**A.** Its value is 5.19 ± 1.68 log base 10 CFU/g.

**Q.** And the “Mean ± SD (n = 2) ruminal EC concentration” value ([1]; nonfasted, 0 h post treatment)?
**A.** Its value is 3.66 ± 1.76 log base 10 CFU/g.

**Q.** And the “Mean ± SD (n = 2) ruminal EC concentration” value ([1]; nonfasted, 10 h post treatment)?
**A.** The value was 2.22 ± 3.14 log base 10 CFU/g.

**Q.** What about the “Mean ± SD (n = 2) fecal EC concentration” value ([1]; nonfasted, 24 h post treatment) of the same molecule?
**A.** The value was 2.65 ± 1.91 log base 10 CFU/g.

**Q.** And the “Mean ± SD (n = 2) ruminal EC concentration” value ([1]; nonfasted, 24 h post treatment)?
**A.** Its value is 2.28 ± 1.38 log base 10 CFU/g.

**Q.** What about the “effect on the most probable number of culturable anaerobes” value [2] of the same molecule?
**A.** Its value is “little effect”.
